A value given as a limit tells only on which side of the number the result lay.

Experimental findings from patent publication US9688710B2, “Inhibitors of sodium glucose cotransporter 1” (LEXICON PHARMACEUTICALS, INC., priority 2012, dated 2017) are described below.

In experiment [1] the test system is KKay mice. Description: Glucose challenge in KKAy diabetic mice (glucose excursion). It counts as in vivo. The conditions noted are these: KKay mice on 45% high fat diet, 1.5 and 4.5 mg/kg once daily, day 22, glucose bolus 2 g/kg 15 hours after dosing. An excerpt:
(§1) Twelve week-old male KKay mice were purchased from The Jackson Laboratory (Bar Harbor, Me.). They were switched to 45% high fat diet (HFD; diet D12451i, Research Diets) and housed individually for one week before study. The mice were randomized into the following groups by their HbA1c levels and body weights:
(§2) Mice received either vehicle or Compound C once daily at […] for 36 days. Body weight and food consumption were monitored daily. On day 22, blood was collected before glucose challenge for baseline glucose. Mice were then given a bolus dose of glucose (2 g/kg, 10 mL/kg). Blood was collected at 30, 60 and 120 minutes after glucose challenge to estimate the glucose excursion. Blood glucose was analyzed by Cobas Integra 400 Autoanalyzer (Roche Diagnostics).

The test system of experiment [2] is KKay mice. Description: Postprandial tGLP-1 in KKAy diabetic mice. It counts as in vivo. As to conditions: 4.5 mpk group, day 29, 60 minutes after glucose bolus 2 g/kg.
Text: as §1, §2
On day 29, the mice again received a glucose bolus (2 g/kg, 10 mL/kg). Blood was collected at 60 minutes after glucose challenge and analyzed for tGLP-1. Plasma was prepared by centrifuging blood samples at 1000 rpm for 10 minutes at 4° C. tGPL-1 was analyzed by ELISA (Glucagon-Like Peptide-1 Total ELISA Kit, catalog #EZGLP1T-36K, Millipore, St. Charles, Mo.) according to the protocol recommended by Millipore.

The target of experiment [3] is Human sodium/glucose co-transporter type 1 (SGLT1) (Homo sapiens (Human), UniProt P13866). Put plainly: In vitro human SGLT1 inhibition assay (14C-AMG uptake). It counts as cell-based. The conditions noted are these: HEK293 cells expressing human HA-SGLT1, 14C-AMG uptake. On the set-up: key to SGLT1 (human SGLT1 IC50): ***: a value less than 0.01 μM; **: a value less than 0.1 μM; *: a value less than 1 μM; —: a value not measured or exceeding μM. The method in brief: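 Uptake of 14C-AMG (100 nCi) was measured by scintillation counting after 1–2 h at 37 °C, 5% CO2, with or without compound. The buffer was pH 7.3 with 140 mM NaCl, 1 mM CaCl2, 1 mM MgCl2 and 1 mg/mL BSA. Cells were a stable HEK293 line carrying HA-SGLT1 (human), plated overnight at 30,000 per well.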

Experiment [4] has as its system KKay mice. Put plainly: HbA1c in KKAy diabetic mice. The format is in vivo. The conditions noted are these: 1.5 and 4.5 mg/kg once daily, day 26.
Text: as §1, §2
On day 26 after dosing, blood was collected for HbA1c. HbA1c was measured using a meter manufactured by Bayer according to the protocol recommended by Bayer.

Experiment [5] concerns the target Human sodium/glucose co-transporter type 2 (SGLT2) (Homo sapiens (Human), UniProt P31639). Description: In vitro human SGLT2 inhibition assay (14C-AMG uptake). As to conditions: HEK293 cells expressing human HA-SGLT2, 14C-AMG uptake. It counts as cell-based. Details: key to SGLT2 (human SGLT2 IC50): ***: a value less than 0.01 μM; **: a value less than 0.1 μM; *: a value less than 1 μM; —: a value not measured or exceeding μM. An outline of the steps: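 Uptake of 14C-AMG (100 nCi) was followed in a stable HEK293 HA-SGLT2 line over 1-2 h at 37 °C with or without compound. Buffer: 140 mM NaCl, 10 mM HEPES, 5 mM Tris, 1 mg/mL BSA, pH 7.3. Readout was scintillation counting after washing.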

Sequence of Human sodium/glucose co-transporter type 2 (SGLT2) (P31639 whole entry): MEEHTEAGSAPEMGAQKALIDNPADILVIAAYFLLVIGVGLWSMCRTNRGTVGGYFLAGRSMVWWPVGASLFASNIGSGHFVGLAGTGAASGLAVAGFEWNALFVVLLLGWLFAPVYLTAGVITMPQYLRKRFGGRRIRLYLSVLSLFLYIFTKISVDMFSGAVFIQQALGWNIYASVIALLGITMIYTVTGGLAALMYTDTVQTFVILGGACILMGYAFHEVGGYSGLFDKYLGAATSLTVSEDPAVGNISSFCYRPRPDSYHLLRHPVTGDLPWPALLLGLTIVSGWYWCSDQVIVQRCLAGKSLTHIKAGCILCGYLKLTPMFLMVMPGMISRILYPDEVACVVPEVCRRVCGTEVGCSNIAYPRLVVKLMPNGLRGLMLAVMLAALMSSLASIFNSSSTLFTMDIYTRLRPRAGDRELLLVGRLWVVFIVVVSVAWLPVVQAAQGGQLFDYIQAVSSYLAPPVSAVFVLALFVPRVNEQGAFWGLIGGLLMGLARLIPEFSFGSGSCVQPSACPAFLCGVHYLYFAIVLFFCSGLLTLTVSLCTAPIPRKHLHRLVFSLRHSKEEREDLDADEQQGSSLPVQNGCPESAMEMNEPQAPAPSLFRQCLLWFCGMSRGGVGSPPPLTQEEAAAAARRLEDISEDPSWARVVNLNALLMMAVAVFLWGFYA
Sequence of Human sodium/glucose co-transporter type 1 (SGLT1) (P13866 whole entry): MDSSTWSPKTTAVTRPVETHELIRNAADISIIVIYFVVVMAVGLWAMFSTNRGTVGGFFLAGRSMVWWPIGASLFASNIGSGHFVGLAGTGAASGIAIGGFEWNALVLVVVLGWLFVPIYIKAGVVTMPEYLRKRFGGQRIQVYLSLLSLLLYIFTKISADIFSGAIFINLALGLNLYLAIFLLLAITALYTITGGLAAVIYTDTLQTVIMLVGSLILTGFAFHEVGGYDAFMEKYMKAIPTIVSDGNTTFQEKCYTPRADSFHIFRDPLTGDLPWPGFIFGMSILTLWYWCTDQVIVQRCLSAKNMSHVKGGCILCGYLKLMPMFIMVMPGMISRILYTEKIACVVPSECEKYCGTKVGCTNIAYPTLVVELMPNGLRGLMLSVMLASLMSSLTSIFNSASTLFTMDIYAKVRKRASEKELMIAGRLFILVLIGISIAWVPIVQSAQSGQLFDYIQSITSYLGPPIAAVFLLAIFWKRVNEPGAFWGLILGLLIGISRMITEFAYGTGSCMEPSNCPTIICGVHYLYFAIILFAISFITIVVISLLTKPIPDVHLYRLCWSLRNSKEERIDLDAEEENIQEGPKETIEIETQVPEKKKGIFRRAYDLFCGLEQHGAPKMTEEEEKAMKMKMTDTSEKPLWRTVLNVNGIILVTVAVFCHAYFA

Consider `CS[C@H]1O[C@@H](c2ccc(C)c(Cc3ccc(OCCCNC(C)(C)CO)cc3)c2)[C@H](O)[C@@H](O)[C@@H]1O` [(2S,3R,4R,5S,6R)-2-(3-(4-(3-((1-hydroxy-2-methylpropan-2-yl)amino)propoxy)benzyl)-4-methylphenyl)-6-(methylthio)tetrahydro-2H-pyran-3,4,5-triol], for which the “glucose excursion after glucose challenge” value in experiment [1] was “dose-dependent decrease in glucose excursion”. In addition, the “postprandial tGLP-1” value in experiment [2] is listed as “significant increase in postprandial tGLP-1”. The IC50 in experiment [3] and in experiment [5] was < 10 nM throughout. For the same compound, the HbA1c result in experiment [4] is listed as “significant, dose-dependent reduction in HbA1c”.
Regarding `CS[C@H]1O[C@@H](c2ccc(C)c(Cc3ccc(CCCC(=O)NC4(C(=O)N5CCN(C)CC5)CC4)cc3)c2)[C@H](O)[C@@H](O)[C@@H]1O` [4-(4-(2-methyl-5-((2S,3R,4R,5S,6R)-3,4,5-trihydroxy-6-(methylthio)tetrahydro-2H-pyran-2-yl)benzyl)phenyl)-N-(1-(4-methylpiperazine-1-carbonyl)cyclopropyl)butanamide], the IC50 in experiment [3] and in experiment [5] was < 10 nM each time.
With `CCN(CC)C(=O)CCCOc1ccc(Cc2cc([C@@H]3O[C@H](SC)[C@@H](O)[C@H](O)[C@H]3O)ccc2Cl)cc1` [4-(4-(2-chloro-5-((2S,3R,4R,5S,6R)-3,4,5-trihydroxy-6-(methylthio)tetrahydro-2H-pyran-2-yl)benzyl)phenoxy)-N,N-diethylbutanamide], the IC50 (as a rule, the midpoint of a concentration-inhibition curve) is < 100 nM in experiment [3] and < 10 nM in experiment [5].
For `Cc1ccc([C@@H]2O[C@H]([S+](C)[O-])[C@@H](O)[C@H](O)[C@H]2O)cc1Cc1ccc(CCCC(=O)NC(C)(C)C(=O)N2CCN(C)CC2)cc1` (stereo partly drawn) [N-(2-methyl-1-(4-methylpiperazin-1-yl)-1-oxopropan-2-yl)-4-(4-(2-methyl-5-((2S,3R,4R,5S,6R)-3,4,5-trihydroxy-6-(methylsulfinyl)tetrahydro-2H-pyran-2-yl)benzyl)phenyl)butanamide], the IC50 in experiment [3] is < 100 nM; in experiment [5] it was < 10 nM.
Regarding `CS[C@H]1O[C@@H](c2ccc(Cl)c(Cc3ccc(OCCN)cc3)c2)[C@H](O)[C@@H](O)[C@@H]1O` [(2S,3R,4R,5S,6R)-2-(3-(4-(2-aminoethoxy)benzyl)-4-chlorophenyl-6-(methylthio)tetrahydro-2H-pyran-3,4,5-triol], the IC50 in experiment [3] was < 100 nM; in experiment [5], < 10 nM.
With `CS[C@H]1O[C@@H](c2ccc(Cl)c(Cc3ccc(OCCCNC(=O)NC(C)(C)C(N)=O)cc3)c2)[C@H](O)[C@@H](O)[C@@H]1O` [2-(3-(3-(4-(2-chloro-5-((2S,3R,4R,5S,6R)-3,4,5-trihydroxy-6-(methylthio)tetrahydro-2H-pyran-2-yl)benzyl)phenoxy)propyl)ureido)-2-methylpropanamide], the IC50 in experiment [3] and in experiment [5] was < 10 nM each time.
As to `CS[C@H]1O[C@@H](c2ccc(C)c(Cc3ccc(OCC(=O)NC(CO)(CO)CO)cc3)c2)[C@H](O)[C@@H](O)[C@@H]1O` [N-(1,3-dihydroxy-2-(hydroxymethyl)propan-2-yl)-2-(4-(2-methyl-5-((2S,3R,4R,5S,6R)-3,4,5-trihydroxy-6-(methylthio)tetrahydro-2H-pyran-2-yl)benzyl)phenoxy)acetamide], the IC50 is < 100 nM in experiment [3] and < 10 nM in experiment [5].
Regarding `CS[C@H]1O[C@@H](c2ccc(Cl)c(Cc3ccc(OCC(=O)NC(CO)(CO)CO)cc3)c2)[C@H](O)[C@@H](O)[C@@H]1O` [2-(4-(2-chloro-5-((2S,3R,4R,5S,6R)-3,4,5-trihydroxy-6-(methylthio)tetrahydro-2H-pyran-2-yl)benzyl)phenoxy)-N-(1,3-dihydroxy-2-(hydroxymethyl)propan-2-yl)acetamide], the values for the IC50 in experiment [3] and in experiment [5] were < 100 nM and < 10 nM, respectively.
As for `CS[C@H]1O[C@@H](c2ccc(C)c(Cc3ccc(CCCCC(=O)N4CCN(C)CC4)cc3)c2)[C@H](O)[C@@H](O)[C@@H]1O` [5-(4-(2-methyl-5-((2S,3R,4R,5S,6R)-3,4,5-trihydroxy-6-(methylthio)tetrahydro-2H-pyran-2-yl)benzyl)phenyl)-1-(4-methylpiperazin-1-yl)pentan-1-one], the values for the IC50 in experiment [3] and in experiment [5] were < 100 nM and < 10 nM, respectively.
Turning to `CS[C@H]1O[C@@H](c2ccc(C)c(Cc3ccc(CCCCNC(C)(C)CO)cc3)c2)[C@H](O)[C@@H](O)[C@@H]1O` [(2S,3R,4R,5S,6R)-2-(3-(4-(4-((1-hydroxy-2-methylpropan-2-yl)amino)butyl)benzyl)-4-methylphenyl)-6-(methylthio)tetrahydro-2H-pyran-3,4,5-triol], the IC50 in experiment [3] is < 100 nM; in experiment [5] it was < 10 nM.
Turning to `CS[C@H]1O[C@@H](c2ccc(C)c(Cc3ccc(CCCC(=O)NC(C)(C)C(=O)NC4CCN(C)CC4)cc3)c2)[C@H](O)[C@@H](O)[C@@H]1O` [N-(2-methyl-1-((1-methylpiperidin-4-yl)amino)-1-oxopropan-2-yl)-4-(4-(2-methyl-5-((2S,3R,4R,5S,6R)-3,4,5-trihydroxy-6-(methylthio)tetrahydro-2H-pyran-2-yl)benzyl)phenyl)butanamide], the IC50 in experiment [3] and in experiment [5] was < 10 nM in each case.
For `CS[C@H]1O[C@@H](c2ccc(C)c(Cc3ccc(CCCCNCC(C)(C)C(N)=O)cc3)c2)[C@H](O)[C@@H](O)[C@@H]1O` [2,2-dimethyl-3-((4-(4-(2-methyl-5-((3R,4R,5S,6R)-3,4,5-trihydroxy-6-(methylthio)tetrahydro-2H-pyran-2-yl)benzyl)phenyl)butyl)amino)propanamide], the IC50 in experiment [3] and in experiment [5] was < 10 nM in each case.
`CS[C@H]1O[C@@H](c2ccc(C)c(Cc3ccc(CCCCCCC(=O)NC(CO)(CO)CO)cc3)c2)[C@H](O)[C@@H](O)[C@@H]1O` [N-(1,3-dihydroxy-2-(hydroxymethyl)propan-2-yl)-7-(4-(2-methyl-5-((2S,3R,4R,5S,6R)-3,4,5-trihydroxy-6-(methylthio)tetrahydro-2H-pyran-2-yl)benzyl)phenyl)heptanamide]: the IC50 in experiment [3] is < 100 nM; in experiment [5], < 10 nM.
The like results for `CS[C@H]1O[C@@H](c2ccc(C)c(Cc3ccc(OCCCC(=O)NC(C)(C)C(=O)N4CCC(C)CC4)cc3)c2)[C@H](O)[C@@H](O)[C@@H]1O` [N-(2-methyl-1-(4-methylpiperidin-1-yl)-1-oxopropan-2-yl)-4-(4-(2-methyl-5-((2S,3R,4R,5S,6R)-3,4,5-trihydroxy-6-(methylthio)tetrahydro-2H-pyran-2-yl)benzyl)phenoxy)butanamide] were, in that order, < 10 nM and < 10 nM.
Turning to `CS[C@H]1O[C@@H](c2ccc(C)c(Cc3ccc(OCCCC(=O)NCCO)cc3)c2)[C@H](O)[C@@H](O)[C@@H]1O` [N-(2-hydroxyethyl)-4-(4-(2-methyl-5-((2S,3R,4R,5S,6R)-3,4,5-trihydroxy-6-(methylthio)tetrahydro-2H-pyran-2-yl)benzyl)phenoxy)butanamide], the IC50 is < 100 nM in experiment [3] and < 10 nM in experiment [5].
The like results for `CS[C@H]1O[C@@H](c2ccc(Cl)c(Cc3ccc(OCCNC4CCNCC4)cc3)c2)[C@H](O)[C@@H](O)[C@@H]1O` [(2S,3R,4R,5S,6R)-2-(4-chloro-3-(4-(2-(piperidin-4-ylamino)ethoxy)benzyl)phenyl)-6-(methylthio)tetrahydro-2H-pyran-3,4,5-triol] were, in that order, < 100 nM and < 10 nM.
Turning to `COc1ccc(Cc2cc([C@@H]3O[C@H](SC)[C@@H](O)[C@H](O)[C@H]3O)ccc2OC(F)(F)F)cc1` [(2S,3R,4R,5S,6R)-2-(3-(4-methoxybenzyl)-4-(trifluoromethoxy)phenyl)-6-(methylthio)tetrahydro-2H-pyran-3,4,5-triol], the “SGLT1 (human SGLT1 IC50)” value in experiment [3] is recorded as “—”. The “SGLT2 (human SGLT2 IC50)” value in experiment [5] is “—”.
